Test results from US20150313922A1, “COMPOSITIONS AND METHODS FOR THE TREATMENT OF CANCERS ASSOCIATED WITH A DEFICIENCY IN THE MRE11/RAD50/NBS1 DNA DAMAGE REPAIR COMPLEX” (SLOAN-KETTERING INSTITUTE FOR CANCER RESEARCH, priority 2012, published 2015).

These molecules were tested on murine embryonic fibroblast cells that express a low level of Mre11 (Mre11-impaired; Mre11^ATLD1/ATLD1) (assay: Colony formation of Mre11-impaired vs WT murine embryonic fibroblasts exposed to DNA damaging agents). Details: Mre11^ATLD1/ATLD1 vs WT murine embryonic fibroblasts; mean of triplicate samples.
Format: cell-based
For COc1cccc2c1C(=O)c1c(O)c3c(c(O)c1C2=O)C[C@@](O)(C(=O)CO)C[C@@H]3O[C@H]1C[C@H](N)[C@H](O)[C@H](C)O1 [Adriamycin, doxorubicin], the “susceptibility (proportion colony formation vs. concentration) of Mre11-impaired cells as compared to WT cells” value was “equivalent response”.

Same assay, conditions: summary statement of the description
In the case of COc1cccc2c1C(=O)c1c(O)c3c(c(O)c1C2=O)C[C@@](O)(C(=O)CO)C[C@@H]3O[C@H]1C[C@H](N)[C@H](O)[C@H](C)O1 [Adriamycin, doxorubicin], the “growth and/or survival inhibition of a cell having a reduced level of MRN complex formation and/or functionality” value is reported as “no effect”.

The molecules below were run on cancer cells exhibiting reduced MRN complex formation and/or functionality (assay: Growth and/or survival inhibition of cancer cells with reduced MRN complex by clastogenic agents). Details: not given.
Format: cell-based
In the case of O=P1(N(CCCl)CCCl)NCCCO1 (stereo not shown) [cyclophosphamide], the “sensitivity to growth and/or survival inhibition” value is reported as “increased sensitivity”.

Same assay, conditions: cancer cells with reduced MRN complex formation and/or functionality; no experiment described
COc1cccc2c1C(=O)c1c(O)c3c(c(O)c1C2=O)C[C@@](O)(C(=O)CO)C[C@@H]3O[C@H]1C[C@H](N)[C@@H](O)[C@H](C)O1 [epirubicin] was tested, and the “sensitivity to growth and/or survival inhibition” value was “do not exhibit increased sensitivity”.
With CCc1c2c(nc3ccc(OC(=O)N4CCC(N5CCCCC5)CC4)cc13)-c1cc3c(c(=O)n1C2)COC(=O)[C@]3(O)CC [irinotecan] the “sensitivity to growth and/or survival inhibition” value was “increased sensitivity”.
With CC[C@@]1(O)C(=O)OCc2c1cc1n(c2=O)Cc2cc3c(CN(C)C)c(O)ccc3nc2-1 [topotecan] the “sensitivity to growth and/or survival inhibition” value was “increased sensitivity”.
In the case of CO[C@@]12[C@H](COC(N)=O)C3=C(C(=O)C(C)=C(N)C3=O)N1C[C@@H]1N[C@@H]12 [mitomycin C], the “sensitivity to growth and/or survival inhibition” value is reported as “increased sensitivity”.
For O=C1c2c(O)ccc(O)c2C(=O)c2c(NCCNCCO)ccc(NCCNCCO)c21 [mitoxantrone], the “sensitivity to growth and/or survival inhibition” value was “do not exhibit increased sensitivity”.
In the case of COS(C)(=O)=O [methymethanesulfate, methyl methanesulfonate], the “sensitivity to growth and/or survival inhibition” value is reported as “increased sensitivity”.
N.N.[Cl][Pt][Cl] [cisplatin] was tested, and the “sensitivity to growth and/or survival inhibition” value was “increased sensitivity”.
With COc1cccc2c1C(=O)c1c(O)c3c(c(O)c1C2=O)C[C@@](O)(C(C)=O)C[C@@H]3O[C@H]1C[C@H](N)[C@H](O)[C@H](C)O1 [daunorubicin] the “sensitivity to growth and/or survival inhibition” value was “do not exhibit increased sensitivity”.
In the case of CC[C@@]1(O)C(=O)OCc2c1cc1n(c2=O)Cc2cc3ccccc3nc2-1 [campththecin, camptothecin], the “sensitivity to growth and/or survival inhibition” value is reported as “increased sensitivity”.
In the case of CCCCC(=O)OCC(=O)[C@]1(O)Cc2c(O)c3c(c(O)c2[C@@H](O[C@H]2C[C@H](NC(=O)C(F)(F)F)[C@H](O)[C@H](C)O2)C1)C(=O)c1c(OC)cccc1C3=O [valrubicin], the “sensitivity to growth and/or survival inhibition” value is reported as “do not exhibit increased sensitivity”.
In the case of CC(=O)[C@]1(O)Cc2c(O)c3c(c(O)c2[C@@H](O[C@H]2C[C@H](N)[C@H](O)[C@H](C)O2)C1)C(=O)c1ccccc1C3=O [idarubicin], the “sensitivity to growth and/or survival inhibition” value is reported as “do not exhibit increased sensitivity”.
For COc1cccc2c1C(=O)c1c(O)c3c(c(O)c1C2=O)C[C@@](O)(C(=O)CO)C[C@@H]3O[C@H]1C[C@H](N)[C@H](O)[C@H](C)O1 [Adriamycin, doxorubicin], the “sensitivity to growth and/or survival inhibition” value was “do not exhibit increased sensitivity”.
N.N.O=C([O-])C1(C(=O)[O-])CCC1.[Pt+2] [carboplatin] was tested, and the “sensitivity to growth and/or survival inhibition” value was “increased sensitivity”.
